Laboratory results published in patent US12049439B2 (OrsoBio, Inc., priority 2018, dated 2024).

The compounds below were run on PC-3 cells (assay: PC-3 Oxygen Rate Consumption (OCR) Assay). Conditions: Homo sapiens, 0.05 h, medium with 2% FBS, OCR at 3-min post-injection normalized to % increase over DMSO-treated cells, concentration for half-maximal OCR increase, read-out: EC50-PC3-OCR-FBS-3min.
Assay type: cell-based
Procedure: PC-3 Oxygen Rate Consumption (OCR) Assay Procedure:
One day before the assay, PC-3 cells were seeded at 2.5×10^4 cells/160 μL/well in a 96-well XFe96 cell plate, part of a FlexPak containing a cell plate and a cartridge (Agilent, Sunnyvale, CA). The cells were incubated overnight at 37° C. in a 5% CO2 and 90% humidity incubator with F12K culture medium (ThermoFisher Scientific/Invitrogen, Grand Island, NY) containing 10% FBS and 1% penicillin/streptomycin. On the day of the assay, the cells were washed twice with 300 µL/well Medium A [XF assay medium (Agilent) supplemented 10 mM glucose, 1 mM pyruvate, and 2% fetal bovine serum (FBS)], and incubated with 175 µL/well Media A for 1 hr in a 37° C., non-CO2 incubator prior to the measurement of cellular respiration. Compounds of interests were prepared in 1:2 serial dilutions with 100% DMSO and then further diluted into 8× working stock with Media A prior to being loaded to Injection Port A on a XFe96 Analyzer (Agilent). Six replicates were used for each treatment. The cartridge was calibrated in the XFe96 Analyzer 30 minute prior to the measurement of cellular respiration. Basal levels of OCR were measured three times, each using a “3-minute mixing/3-minute measurement” program. The compound effect was measured immediately after compound injection from Injection Port A, and OCR was monitored continuously 10 times, each time using a “1-minute mixing/2-minute measurement” program for a total of 30 minutes post compound injection. The level of OCR at 3-min post-injection was normalized to % increase over DMSO-treated cells. The concentration of compound required to reach the half-maximal OCR increase was defined as EC50 Table 2 contains PC3 OCR EC50 values for the compounds disclosed.

Structure (SMILES)	EC50
CN(C)S(=O)(=O)Nc1ccc(C(F)(F)F)cc1C(=O)NC1CC2CCC(C1)N2S(C)(=O)=O (centres unmarked) [Example 174, 2-((N,N-dimethylsulfamoyl)amino)-N-(8-(methylsulfonyl)-8-azabicyclo[3.2.1]octan-3-yl)-5-(trifluoromethyl)benzamide]	108 µM
CS(=O)(=O)Nc1cc(Br)ccc1C(=O)NC12CC(C1)C2 [Example 47, N-(bicyclo[1.1.1]pentan-1-yl)-4-bromo-2-(methylsulfonamido)benzamide]	17.3 µM
N#CC12CCC(NC(=O)c3cc(S(F)(F)(F)(F)F)ccc3NS(=O)(=O)N3CCOCC3)(CC1)CC2 [Example 206, N-(4-cyanobicyclo[2.2.2]octan-1-yl)-2-(morpholine-4-sulfonamido)-5-(pentafluoro-λ^6-sulfanyl)benzamide]	2.71 µM
O=C(NC12CCC(C(F)(F)F)(CC1)CC2)c1cc(SC(F)(F)F)ccc1NS(=O)(=O)N1CCS(=O)(=O)CC1 [Example 237, 2-((1,1-dioxidothiomorpholine)-4-sulfonamido)-N-(4-(trifluoromethyl)bicyclo[2.2.2]octan-1-yl)-5-((trifluoromethyl)thio)benzamide]	7.73 µM
CS(=O)(=O)Nc1ccc(C(F)(F)F)cc1C(=O)NC12C3C4C1C1C2C3C41C#N [Example 187, N-((2r,3R,4r,5S)-4-cyanocuban-1-yl)-2-(methylsulfonamido)-5-(trifluoromethyl)benzamide]	11.5 µM
CS(=O)(=O)c1cccc(S(=O)(=O)Nc2cc(F)ccc2C(=O)NC23CC(C(F)(F)F)(C2)C3)c1 [Example 22, 4-fluoro-2-((3-(methylsulfonyl)phenyl)sulfonamido)-N-(3-(trifluoromethyl)bicyclo[1.1.1]pentan-1-yl)benzamide]	9.97 µM
CS(=O)(=O)Nc1cc(F)ccc1C(=O)NC12CCC(F)(CC1)CC2 [Example 199, 4-fluoro-N-(4-fluorobicyclo[2.2.2]octan-1-yl)-2-(methylsulfonamido)benzamide]	≥ 100 µM
O=C(NC12CC(C(F)(F)F)(C1)C2)c1ccc(C(F)(F)F)cc1NS(=O)(=O)c1ccc(-n2cnnn2)cc1 [Example 17, 2-((4-(1H-tetrazol-1-yl)phenyl)sulfonamido)-4-(trifluoromethyl)-N-(3-(trifluoromethyl)bicyclo[1.1.1]pentan-1-yl)benzamide]	5.83 µM
CS(=O)(=O)Nc1cc(C(F)(F)F)ccc1C(=O)NC12CC(C(F)(F)F)(C1)C2 [Example 147, 2-(methylsulfonamido)-4-(trifluoromethyl)-N-(3-(trifluoromethyl)bicyclo[1.1.1]pentan-1-yl)benzamide]	1.58 µM
CC(C)(C)S(=O)(=O)Nc1cc(C#N)ccc1C(=O)NC12CC(c3ccccc3)(C1)C2 [Example 98, 4-cyano-2-((1,1-dimethylethyl)sulfonamido)-N-(3-phenylbicyclo[1.1.1]pentan-1-yl)benzamide]	1.98 µM
N#CC12CCC(NC(=O)c3ccc(F)cc3NS(=O)(=O)CCC(F)(F)F)(CC1)CC2 [Example 134, N-(4-cyanobicyclo[2.2.2]octan-1-yl)-4-fluoro-2-((3,3,3-trifluoropropyl)sulfonamido)benzamide]	2.68 µM
CC(C)(C)S(=O)(=O)Nc1ccc(C(F)(F)F)cc1C(=O)NC12CC(C#N)(C1)C2 [Example 164, N-(3-cyanobicyclo[1.1.1]pentan-1-yl)-2-((1,1-dimethylethyl)sulfonamido)-5-(trifluoromethyl)benzamide]	1.74 µM
CS(=O)(=O)c1ccc(S(=O)(=O)Nc2cc(C(F)(F)F)ccc2C(=O)NC23CC(C2)C3)cc1 [Example 23, N-(bicyclo[1.1.1]pentan-1-yl)-2-((4-(methylsulfonyl)phenyl)sulfonamido)-4-(trifluoromethyl)benzamide]	12 µM
CC(C)(C)S(=O)(=O)Nc1ccc(C(F)(F)F)cc1C(=O)NC12CC3CC(CC(C#N)(C3)C1)C2 [Example 176, N-((1R,5R)-3-cyanoadamantan-1-yl)-2-((1,1-dimethylethyl)sulfonamido)-5-(trifluoromethyl)benzamide]	1.7 µM
CS(=O)(=O)Nc1ccc(C#N)cc1C(=O)NC12CCC(C(F)(F)F)(CC1)CC2 [Example 229, 5-cyano-2-(methylsulfonamido)-N-(4-(trifluoromethyl)bicyclo[2.2.2]octan-1-yl)benzamide]	4.42 µM
CS(=O)(=O)Nc1cccc(F)c1C(=O)NC12CC(C(F)(F)F)(C1)C2 [Example 142, 2-fluoro-6-(methylsulfonamido)-N-(3-(trifluoromethyl)bicyclo[1.1.1]pentan-1-yl)benzamide]	≥ 100 µM
O=C(NC12CC(C(F)(F)F)(C1)C2)c1ccc(C(F)(F)F)cc1NS(=O)(=O)c1ccc(F)cc1 [Example 109]	0.38 µM
CC(C)(C)S(=O)(=O)Nc1ccc(Br)cc1C(=O)NC12CC(c3ccccc3)(C1)C2 [Example 94, 5-bromo-2-((1,1-dimethylethyl)sulfonamido)-N-(3-phenylbicyclo[1.1.1]pentan-1-yl)benzamide]	6.16 µM
CCP(=O)(CC)c1ccc(S(=O)(=O)Nc2cc(C(F)(F)F)ccc2C(=O)NC23CC4CC(CC(C#N)(C4)C2)C3)cc1 [Example 181]	114 µM
N#CC1(S(=O)(=O)Nc2ccc(Cl)cc2C(=O)NC23CCC(C(F)(F)F)(CC2)CC3)CC1 [Example 209, 5-chloro-2-((1-cyanocyclopropane)-1-sulfonamido)-N-(4-(trifluoromethyl)bicyclo[2.2.2]octan-1-yl)benzamide]	0.648 µM
CS(=O)(=O)c1ccc(S(=O)(=O)Nc2cc(Cl)c(Cl)cc2C(=O)NC23CC(C(F)(F)F)(C2)C3)cc1 [Example 92, 4,5-dichloro-2-((4-(methylsulfonyl)phenyl)sulfonamido)-N-(3-(trifluoromethyl)bicyclo[1.1.1]pentan-1-yl)benzamide]	8.09 µM
CC(C)S(=O)(=O)Nc1cc(C(F)(F)F)ccc1C(=O)NC12CCC(C#N)(CC1)CC2 [Example 57, N-(4-cyanobicyclo[2.2.2]octan-1-yl)-2-((1-methylethyl)sulfonamido)-4-(trifluoromethyl)benzamide]	8.09 µM
COc1ccc(C(=O)NC23CC(c4ccccc4)(C2)C3)c(NS(=O)(=O)c2ccc(S(C)(=O)=O)cc2)c1 [Example 89, 4-methoxy-2-((4-(methylsulfonyl)phenyl)sulfonamido)-N-(3-phenylbicyclo[1.1.1]pentan-1-yl)benzamide]	26.7 µM
O=C(NC12CCC(C(F)(F)F)(CC1)CC2)c1cc(C(F)(F)F)ccc1NS(=O)(=O)C1CCS(=O)(=O)CC1 [Example 239, 2-((1,1-dioxidotetrahydro-2H-thiopyran)-4-sulfonamido)-5-(trifluoromethyl)-N-(4-(trifluoromethyl)bicyclo[2.2.2]octan-1-yl)benzamide]	7.73 µM
O=C(NC12CCC(F)(CC1)CC2)c1cc(C(F)(F)F)ccc1NS(=O)(=O)Cc1ccccc1 [Example 197, N-(4-fluorobicyclo[2.2.2]octan-1-yl)-2-((phenylmethyl)sulfonamido)-5-(trifluoromethyl)benzamide]	0.893 µM

Same assay, conditions: medium with 2% FBS, OCR at 3-min post-injection normalized to % increase over DMSO-treated cells, concentration for half-maximal OCR increase, read-out: EC50-PC3-OCR-FBS-3min

Structure (SMILES)	EC50
CS(=O)(=O)Nc1c(F)cccc1C(=O)NC12CC(C(F)(F)F)(C1)C2 [Example 145, 3-fluoro-2-(methylsulfonamido)-N-(3-(trifluoromethyl)bicyclo[1.1.1]pentan-1-yl)benzamide]	≥ 100 µM
